Among the data in PubChem BioAssay AID1645864 (Buhrlage Lab, Dana-Farber Cancer Institute and Novartis …, 2021) are IC50 values, retold here.

Calls of active or inactive are those of the source.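 How the source made its calls: active means maximal inhibition of USP17 at or above 30% in the confirmation dose-response, a value not among the printed readouts; inactive means the rest.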

Ubiquitin carboxyl-terminal hydrolase 17-like protein 5 (Homo sapiens), sequence (A8MUK1 whole entry, looked up): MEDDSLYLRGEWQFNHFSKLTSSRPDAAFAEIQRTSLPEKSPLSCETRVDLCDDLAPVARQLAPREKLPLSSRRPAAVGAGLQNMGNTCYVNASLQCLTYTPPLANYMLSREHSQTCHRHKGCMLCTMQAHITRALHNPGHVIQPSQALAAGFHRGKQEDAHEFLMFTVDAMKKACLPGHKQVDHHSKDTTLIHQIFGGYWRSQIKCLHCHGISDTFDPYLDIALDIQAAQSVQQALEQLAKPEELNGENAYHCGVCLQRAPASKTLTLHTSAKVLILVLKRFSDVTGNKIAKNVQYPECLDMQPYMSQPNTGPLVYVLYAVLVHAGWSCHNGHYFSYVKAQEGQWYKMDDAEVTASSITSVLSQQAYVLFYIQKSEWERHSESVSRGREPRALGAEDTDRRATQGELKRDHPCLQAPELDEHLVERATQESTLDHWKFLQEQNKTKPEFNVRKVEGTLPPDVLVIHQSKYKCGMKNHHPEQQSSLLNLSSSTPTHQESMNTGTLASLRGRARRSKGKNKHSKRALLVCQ

This assay concerns the target Ubiquitin carboxyl-terminal hydrolase 17-like protein 5 (Homo sapiens) (UniProt A8MUK1). In words: ubiquitin-specific protease 17 inhibitors, concentration series, biochemical, verification of primary actives (AID 1645864). The note with it: purified USP17, ubiquitin-rhodamine cleavage fluorescence, 3 h.
As to `COc1ccc(-c2nc(CNC(=O)COc3ccc(C)cc3)cs2)cc1`, the half-inhibitory concentration (IC50) (in general, the concentration that inhibits the measured activity by half) is 36.9 µM.
`Cn1cc(CCNC(=O)c2cc3ccccc3[nH]2)c2cccnc21`: the IC50 is > 50 µM (inactive).
`COC1=CC(=O)c2c(O)c(C)c(CC(C)=O)c(O)c2C1=O`: the concentration for half-maximal inhibition (IC50) is 2.87 µM.
For `CCOc1ccc(NC(=O)Cn2c(=O)n(CC(=O)NCc3ccc(C)cc3)c(=O)c3sccc32)cc1`, the IC50 was 3.97 µM.
Regarding `Cn1c2ccccc2c(=O)c2c(=O)n(Cc3ccccc3)c(-c3ccccc3F)nc21`, the IC50 was 0.127 µM.
Regarding `COc1ccc(-c2nc(SCC(=O)Nc3ccc(C(C)=O)cc3)n[nH]2)cc1`, the IC50 was 10.8 µM.
As for `COc1ccc(CCNC(=O)CCCn2c(=O)c3ccccc3n(CC(=O)OCc3ccccc3)c2=O)cc1OC`, the figure is 23.1 µM; as for `COc1ccc(NC(=O)c2nnn(-c3ccccc3F)c2C)cc1OC`, > 50 µM (inactive).
Consider `O=C(Nc1cccc(Cl)c1)N1CCN(c2cc(C(F)(F)F)ccn2)CC1`, for which the IC50 was 12.3 µM.
For `O=C(CNC(=O)OCc1ccccc1)Nc1ccc(Br)cc1C(=O)c1ccccc1Cl`, the IC50 is 9.66 µM.
On to `Cc1nc(NCc2ccccn2)c2cc(-c3ccccc3)sc2n1`, for which the concentration for half-maximal inhibition (IC50) is 24.7 µM.
`Cc1ccc(C)c(Cn2nnc3c(=O)[nH]c(C4CCN(S(=O)(=O)c5ccc(S(=O)(=O)NC6CC6)cc5)CC4)nc32)c1`: the IC50 was 24.4 µM.
As for `Cc1ccc(C(=O)Nc2ccc3c(c2)C(=O)N(C)c2ccccc2O3)cc1C`, the IC50 was > 50 µM (inactive).
For the compound `CCOC(=O)c1ccc(NC(=O)Cn2c(=O)n(CC(=O)NCc3ccco3)c(=O)c3ccccc32)cc1`, the IC50 was 2.89 µM.
Turning to `O=C(COC(=O)c1ccc(CN2CCCC2=O)cc1)c1ccc2c(c1)OCCO2`, the IC50 is > 50 µM (inactive).
Regarding `Cc1ccc(CNC(=O)c2ccc(N3C(=O)[C@@H]4Cc5ccccc5CN4C3=O)cc2)cc1`, the IC50 was 34.2 µM.
Take `CC(C)c1ccc(NC(=O)c2cc3ncc(Br)cn3n2)cc1`: the IC50 is 1.73 µM.
As for `COc1ccc2nc(Nc3ncc4c(n3)CCCC4=O)nc(C)c2c1`, the IC50 is > 5 µM (inactive).
In the case of `CCCCNC(=O)C1Sc2nnc(-c3ccccc3)n2NC1c1ccccc1` (centres undefined), the IC50 is 23.7 µM.
As for `CCCCc1nc2sc3c(NCCN4CCOCC4)ncnc3c2c2c1CCC2`, the figure is > 50 µM (inactive).
Take `O=S(=O)(Nc1ccc(O)cc1)c1ccc2oc3ccc(S(=O)(=O)Nc4ccc(O)cc4)cc3c2c1`: the IC50 is 43.6 µM.
With `O=C1NCCCC1Cc1ccc(-c2cccc(C(=O)N3CCc4ccccc4C3)c2)cc1` (centres undefined), the IC50 is 38.2 µM.
Regarding `CN(C)Cc1ccc(C(=O)Nc2ccc(-c3nccs3)cc2)cc1`, the IC50 was > 50 µM (inactive).
Regarding `CC1CCc2c(sc3ncnc(OCc4cccc([N+](=O)[O-])c4)c23)C1` (centres undefined), the IC50 was > 50 µM (inactive).
For the compound `Cc1ccc(CNC(=O)c2cnc3ccccc3n2)cc1`, the IC50 is > 50 µM (inactive).
With `CC(C)c1ccc(NC(=O)COC(=O)c2ccc3[nH]c4c(c3c2)CCCC4)cc1`, the IC50 was 42.7 µM.
As for `O=C(COC(=O)c1cc2c(s1)CCC2)c1ccc2[nH]c(=O)[nH]c2c1`, the figure is 15.7 µM; as for `CCOCCCn1c(SCC(=O)Nc2ccccc2C(F)(F)F)nc2ccccc2c1=O`, 20.9 µM.
Consider `COC(=O)c1cc(C)sc1NC(=O)c1cccc(OC)c1OC`, for which the IC50 is > 50 µM (inactive).
Take `COc1c(C)c(C(O)C(C)O)c2[nH]c3ccc(CC=C(C)C)cc3c2c1O` (centres undefined): the IC50 is 17.1 µM.
As for `O=C(NCCc1ccccc1)c1nnn(Cc2cccc(Cl)c2)c1-n1cccc1`, the figure is > 50 µM (inactive).
As for `CC1=C(C)C(c2c(-c3ccc(C)cc3)[nH]c3ccccc23)N(C(C)(C)C)C1=O` (centres undefined), the figure is 2.05 µM; as for `COc1ccc(-c2cc3c(=O)n(CC(=O)NCCCN4CCCC4)ncn3n2)cc1`, 29.2 µM; as for `Cc1cc(C)c2cc(C(=O)NC3CCN(Cc4ccccc4)CC3)[nH]c2c1`, 14.7 µM.
`O=C(CC(C(=O)Nc1ccc2c(c1)OCO2)C(=O)c1ccccc1)Nc1ccc(Cl)cc1F` (centres undefined): the IC50 is 11.4 µM.
`N#Cc1c(-c2cccs2)cc(-c2cccs2)[nH]c1=O`: the IC50 was > 50 µM (inactive).
Then `O=c1c2ccccc2ncn1C1CCN(S(=O)(=O)c2ccccc2F)CC1`, with 28.9 µM; and `Cc1cc(NC(=O)COc2ccc3oc4ccccc4c3c2)no1`, with 31.4 µM; and `CC1(C)Cc2c(c(-c3ccco3)nc3sc4c(SCCCc5ccccc5)ncnc4c23)CO1`, with 34.4 µM.
In the case of `CCC(CC)n1[nH]c(=O)c2c1NC(=O)CSC2c1ccc2c(c1)OCO2` (centres undefined), the IC50 is 18.5 µM.
Then `C=C(NC(=O)C(=C)NC(=O)c1csc(C2=N[C@@H]3c4csc(n4)[C@H]4NC(=O)c5csc(n5)[C@H]([C@](C)(O)[C@@H](C)O)NC(=O)[C@H]5CSC(=N5)/C(=C/C)NC(=O)C([C@@H](C)O)NC(=O)c5csc(n5)C3(CC2)NC(=O)[C@H](C)NC(=O)C(=C)NC(=O)[C@H](C)NC(=O)C([C@@H](C)CC)N[C@@H]2C=Cc3c(C(C)O)cc(nc3[C@H]2O)C(=O)OC4C)n1)C(N)=O` (some centres undefined), with > 50 µM (inactive); and `COc1ccc(NC(=O)c2nc3n(n2)-c2ccccc2S(=O)(=O)N3)cn1`, with > 50 µM (inactive).
Then `c1coc(CNc2nc(Nc3cccc4ccccc34)nc3ccccc23)c1`, with > 50 µM (inactive); and `O=c1[nH]cccc1NS(=O)(=O)c1ccc(F)cc1`, with > 50 µM (inactive).
For `COc1cc(OC)cc(-n2c(=O)c3sccc3n(CC(=O)c3ccc(F)cc3)c2=O)c1`, the IC50 was 26.1 µM.
On to `COc1ccc(C2C(C(=O)C(C)(C)C)N3c4ccccc4C=CC3C23C(=O)c2ccccc2C3=O)c(OC)c1` (centres undefined), for which the IC50 is > 50 µM (inactive).
On to `O=C(c1cc(Cl)ccc1Cl)N1CCN(c2ccc3nnc(-c4ccco4)n3n2)CC1`, for which the IC50 was > 50 µM (inactive).
Take `Fc1ccc(CSc2nnc(-c3ccccn3)n2Cc2ccco2)cc1`: the IC50 is > 50 µM (inactive).
Regarding `CCN(c1ccc(NC(=O)CSc2nnc(-c3ccccc3)n2-c2ccc(OC)c(OC)c2)cc1)C(C)C`, the half-inhibitory concentration (IC50) was 5.06 µM.
Turning to `Cn1c(=O)c(C(=O)CN2CCN(c3ccc(O)cc3)CC2)c(N)n(Cc2ccccc2)c1=O`, the IC50 is 39.5 µM.
`Cc1noc(C)c1CN1CC[C@H]2O[C@H](C(=O)NCc3ccco3)CC[C@H]21`: the IC50 was > 50 µM (inactive).
Turning to `CCOC(=O)c1ccc(NC(=O)c2cnc(N3CCOCC3)nc2)cc1`, the IC50 is > 5 µM (inactive).
Then `COc1ccc(CCC(=O)Nc2ccc3c(c2)Sc2ncccc2C(=O)N3C)cc1`, with > 50 µM (inactive); and `Cc1ccccc1Cn1cc(SCC(=O)Nc2ccc3c(c2)OCCO3)c2ccccc21`, with > 50 µM (inactive); and `N#Cc1c(-c2ccccc2)ccn(Cc2cccc(C(F)(F)F)c2)c1=O`, with 33.8 µM.
With `COc1ccc(-c2cc(C(C)=O)c(C)n2CCC(=O)Nc2ccc(OC)cc2OC)cc1`, the IC50 is 40.7 µM.
As for `Cc1ccc(OC(=O)c2cn(-c3ccccc3)nc2-c2cccnc2)cc1`, the figure is > 50 µM (inactive).
Turning to `O=C(Nc1ccc2c(c1)OCCO2)c1cc(CN2CCCC2)on1`, the IC50 was > 50 µM (inactive).
As for `Cc1ccc2c(c1C)NC(=O)[C@]21[C@@H]2C(=O)N(c3cccc(Cl)c3)C(=O)[C@@H]2[C@@H]2CCCN21`, the IC50 was > 50 µM (inactive).
Take `Cc1cc(CSc2ncccc2C(=O)Nc2ccnn2Cc2cccnc2)no1`: the IC50 was > 50 µM (inactive).
For `C=Cc1ccc(Cn2cccc(S(=O)(=O)N3CCCC3)c2=O)cc1`, the 50% inhibitory concentration (IC50) was 3.92 µM.
As for `CN(Cc1ccccc1)S(=O)(=O)c1ccc(S(=O)(=O)N2CCN(C(=O)c3cccnc3)CC2)cc1`, the half-maximal inhibitory concentration (IC50) is 44 µM.
Then `O=C(CN1C(=O)C2CCCC2=Nc2ccccc21)Nc1cc(F)ccc1F` (centres undefined), with 13.9 µM.
`O=C(CC1Oc2ccccc2NC1=O)Nc1ccccc1Br` (centres undefined): the IC50 is 33.4 µM.
For `O=C(NC1CCN(Cc2ccccc2)CC1)c1[nH]nc2c1COc1ccccc1-2`, the IC50 is > 50 µM (inactive).
As for `Cc1nn(C)c2c1[C@@H](c1ccc(F)cc1)[C@H](NC(=O)c1ccccc1)C(=O)N2`, the figure is > 50 µM (inactive).
On to `O=C(NCc1ccc(-c2nc3cnccc3o2)cc1)c1cc2ccccc2o1`, for which the IC50 was 3.29 µM.
Take `COc1ccc(-c2nc(SCC(=O)Nc3ccc(Cl)cc3F)n[nH]2)cc1`: the IC50 was 47.5 µM.
On to `Nc1nonc1C(=O)NCCNCc1cccc(OCc2ccc(Cl)cc2)c1`, for which the IC50 was > 50 µM (inactive).
As for `CC1(C(=O)NC2CCCC2)Cn2c(cc3ccccc32)C(=O)N1c1ccc(F)cc1` (centres undefined), the IC50 is 30.9 µM.
`CC1Cc2ccccc2N1C(=O)Cn1c(=O)cc(O)c2ccccc21` (centres undefined): the IC50 is > 50 µM (inactive).
On to `COc1cc(NC(=O)c2ccc3c(c2)OCO3)ccc1-c1cc2ccccc2oc1=O`, for which the IC50 is 0.678 µM.
With `COCCCNC(=O)c1ccc(Cn2c(=O)c3ccccc3n(CC(=O)Nc3ccc(OC)cc3)c2=O)cc1`, the IC50 is 29.7 µM.
Take `COc1ccccc1OCC(=O)Nc1ccc2c(c1)CCC(=O)N2Cc1ccccc1`: the IC50 is > 50 µM (inactive).
On to `Cc1ccc(C)c(S(=O)(=O)N2CCC3(CC2)NC(=O)c2ccccc2N3)c1`, for which the IC50 was 46.1 µM.
As for `CCCNc1cc(-c2ccccc2)nc2nc(-c3cccnc3)nn12`, the figure is > 50 µM (inactive); as for `O=C(CSc1nnc2n1CCCCC2)Nc1ccc2[nH]c(=O)[nH]c2c1`, 12 µM.
On to `Cc1ccc(C(=O)N2CCCC3(C2)Nc2cccnc2NC3=NC2CCCC2)s1` (centres undefined), for which the IC50 is > 50 µM (inactive).
Regarding `Cc1ccc(NC(=O)c2c3c(nc4ccccc24)CCCCC3)c(C)c1`, the IC50 was > 50 µM (inactive).
As for `COc1ccc(N2CCN(Cc3nnnn3Cc3ccc4c(c3)OCO4)CC2)cc1`, the IC50 was > 50 µM (inactive).
Then `Cc1cc(NC(=O)c2nnn(-c3ccccc3Cl)c2C)no1`, with > 50 µM (inactive); and `COc1cc(-c2cc(C(=O)Nc3cc(C)[nH]n3)c3ccccc3n2)cc(OC)c1OC`, with 42.9 µM; and `O=C(Nc1cccc(Cl)c1)c1ncn2c1CNS(=O)(=O)c1ccccc1-2`, with 6.05 µM.
With `COc1ccc(-c2ccnc(-c3ccc(OCc4cccc(F)c4)cc3)n2)cc1`, the IC50 was 37.2 µM.
